One data set relates to SiHa cells. The experiment in a line: MTT antiproliferative assay, SiHa cells. It counts as cell-based, human. The note with it: Homo sapiens, 48 h, mean ± SD. On the procedure:
(§1) HeLa and SiHa cell lines were obtained from the Procell Life Science Technology Co., Ltd. (Wuhan, China); H8 cell line was obtained from the Shanghai HonSun Biological Technology Co., Ltd. (Shanghai, China); HUVEC cell line was obtained from the Saibaikang (Shanghai) Biotechnology Co., Ltd. (Shanghai, China); HeLa/DDP cell line was obtained from the Guangzhou Jenniobio Biotechnology Co., Ltd. (Guangzhou, China). HeLa, SiHa, H8, and HeLa/DDP cells were cultured in DMEM medium (HyClone). The VEGF of 50 ng/mL was used as the promoter of the VEGFR-2 receptor on HUVEC cell membrane surfaces, and their inhibitory effects on VEGFR-2 were determined. All the mediums were supplemented with 10% FBS (HyClone, GE Healthcare, Australia). Cells were maintained at subconfluency at 37 °C in humidified air containing 5% CO2. The cells were monitored daily and maintained at 80% cell density. All compounds tested were dissolved in DMSO and then diluted by the culture medium before the treatment of cultured cells. Identification reports are available for all types of cell lines involved in this study.
(§2) The cytotoxicity of the target compounds were measured in vitro using the MTT assay. Cells grown in the logarithmic phase were counted and seeded in 96-well cell culture plates (5 × 10^3 cells per well) for 24 h to allow attachment of cells to the wall of the plate. […] Next, 20 μL of 5 mg.mL^−1 MTT solution was added to each well and cultured for 4 h. The old solution was discarded, replaced with 150 μL DMSO solution per well, and shaken for 10 min. The OD value was measured under 490 nm, and the inhibition rate was calculated. The nonlinear regression fitting of the cell growth rate was carried out using SPSS 23.0 software, and the IC50 of the compound was calculated. […] There were 6 compound holes in each group, and the experimental results were presented as the average of 3 experiments. A complete medium containing only cells was used as the blank control, whereas a complete medium without cells was the negative control group. Cisplatin and sorafenib were utilized as the positive control group, and the target compound was the experimental intervention group.

The next data set relates to HeLa/DDP cells. Put plainly: MTT assay, cisplatin-resistant HeLa/DDP cells. It counts as cell-based, human. The note with it: for RI (resistance index): HeLa/DDP versus HeLa; for IC50: Homo sapiens, 48 h, read-out: 48h IC50 HeLa/DDP.
The target in data set [1] is T1, VEGFR-2 (Homo sapiens, UniProt P35968).
T1 construct: endogenous in cells; host or cells: HeLa cells
T1 sequence (P35968 20-1356): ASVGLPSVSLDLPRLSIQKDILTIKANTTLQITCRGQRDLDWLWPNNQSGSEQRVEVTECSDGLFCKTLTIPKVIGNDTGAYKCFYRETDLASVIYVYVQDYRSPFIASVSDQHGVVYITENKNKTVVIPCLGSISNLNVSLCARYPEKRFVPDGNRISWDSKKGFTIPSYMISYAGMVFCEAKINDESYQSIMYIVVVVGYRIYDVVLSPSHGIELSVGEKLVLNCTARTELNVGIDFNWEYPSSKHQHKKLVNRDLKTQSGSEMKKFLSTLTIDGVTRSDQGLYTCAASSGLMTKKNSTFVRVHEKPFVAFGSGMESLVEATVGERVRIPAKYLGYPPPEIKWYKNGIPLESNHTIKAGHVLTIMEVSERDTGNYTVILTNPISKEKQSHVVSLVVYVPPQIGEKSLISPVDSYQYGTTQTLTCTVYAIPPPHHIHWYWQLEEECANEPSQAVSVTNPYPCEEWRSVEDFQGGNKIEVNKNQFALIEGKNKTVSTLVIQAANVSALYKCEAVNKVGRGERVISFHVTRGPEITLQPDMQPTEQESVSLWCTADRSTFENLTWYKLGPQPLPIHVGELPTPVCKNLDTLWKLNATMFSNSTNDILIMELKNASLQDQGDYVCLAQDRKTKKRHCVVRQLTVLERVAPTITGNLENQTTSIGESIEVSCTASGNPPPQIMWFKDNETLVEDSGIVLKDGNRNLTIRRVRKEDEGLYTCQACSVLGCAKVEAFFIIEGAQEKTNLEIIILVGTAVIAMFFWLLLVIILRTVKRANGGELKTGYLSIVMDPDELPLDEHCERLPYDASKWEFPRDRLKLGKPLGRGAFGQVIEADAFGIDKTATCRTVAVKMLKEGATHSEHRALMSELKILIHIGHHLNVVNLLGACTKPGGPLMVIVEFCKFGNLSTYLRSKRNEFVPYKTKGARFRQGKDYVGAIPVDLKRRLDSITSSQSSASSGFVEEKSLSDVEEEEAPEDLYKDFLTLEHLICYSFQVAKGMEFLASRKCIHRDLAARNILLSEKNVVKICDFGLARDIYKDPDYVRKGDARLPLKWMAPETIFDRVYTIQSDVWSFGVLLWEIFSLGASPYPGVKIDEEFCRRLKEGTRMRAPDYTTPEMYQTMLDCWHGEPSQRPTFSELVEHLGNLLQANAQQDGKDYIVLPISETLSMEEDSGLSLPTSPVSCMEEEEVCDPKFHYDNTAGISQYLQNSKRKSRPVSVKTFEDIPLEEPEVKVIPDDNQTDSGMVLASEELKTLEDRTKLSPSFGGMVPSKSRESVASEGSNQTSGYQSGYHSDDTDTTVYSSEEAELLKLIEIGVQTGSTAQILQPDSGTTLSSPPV
The experiment in a line: VEGFR-2 inhibition test (human p-VEGFR-2 ELISA in HeLa cells). It counts as cell-based. The following applies: ± SD, read-out: 48h IC50 VEGFR-2 inhibitory effect.
Experimental: Specimens, standards, and HRP-labeled detection antibodies were added sequentially to the pre-covered microtiter wells containing phosphorylated vascular endothelial growth factor receptor 2 (p-VEGFR2) antibodies, warmed, and washed thoroughly. The substrate TMB was added for color development. This substrate is converted to blue using peroxidase catalysis to a final yellow color due to the action of acid. […] Curve fitting was performed using SPSS 23.0 software to calculate IC50.

The test system of another data set is H8 cells. The experiment in a line: MTT cytotoxicity assay, normal cervical epithelial H8 cells. It counts as cell-based, human. The note with it: Homo sapiens, 48 h, mean ± SD. On the procedure:
as §1, §2

Another data set has as its system HUVEC cells. The experiment in a line: In vitro HUVEC inhibitory assay (MTT). In kind it is cell-based. The note with it: Homo sapiens, 48 h, ± SD. The procedure:
as §1, §2
After incubation for 24 h, the cell was collected using centrifugation and washed twice using PBS chilled to 0 °C. Then, the cells were homogenized in RIPA lysis buffer and 1% PMSF, 1% mixed phosphatase inhibitor (Solarbio, Beijing, China). The lysates were incubated on ice for 30 min, intermittently vortexed every 5 min, and centrifuged at 12,000 rpm for 20 min to harvest the supernatants.

In data set [2] the test system is HeLa cells. The experiment in a line: MTT antiproliferative assay, HeLa cells. The following applies: Homo sapiens, 48 h. In kind it is cell-based, human. On the procedure:
as §1, §2

For data set [3], the system named is HeLa cells. Put plainly: Apoptosis analysis, Annexin V-FITC/PI flow cytometry. In kind it is cell-based, human. The note with it: 4 μM, 24 h. On the procedure:
After incubation, cells were harvested and incubated using […] of Annexin-V/FITC (BD, America) in binding buffer (10 mM HEPES, 140 mM NaCl, and 2.5 mM CaCl2 at pH 7.4) at room temperature for 15 min. The PI solution was then added to the medium for another 10 min incubation. Almost 10,000 events were collected for each sample and analyzed using flow cytometry (BD, LSRFortessa, New York, NY, USA). The procedure for the remaining Western blot was the same as in Section 3.3.3.

Data set [4] has as its system VEGFR-2. The note with it: read-out: IC50 against VEGFR-2; cited from earlier work.
Another data set deals with PC-3 cells. The note with it: cytotoxic effect; cited from earlier work.
The next data set relates to MCF-7 cells. The note with it: cytotoxic effect; cited from earlier work.
A further data set has as its system HepG2 cells. The note with it: cited from earlier work.
[5] abbreviates: cisplatin-resistant HeLa/DDP cells, single agent.
Where [6] appears, read: MTT, mean ± SD, read-out: 48h IC50 HeLa.
Setting [7] is: single agent, read-out: 48h IC50 HeLa (Table 4).

Like-named read-outs stand apart in the source and are kept apart here.

Experimental for HeLa/DDP cells: The cytotoxicity of the target compounds were measured in vitro using the MTT assay. Cells grown in the logarithmic phase were counted and seeded in 96-well cell culture plates (5 × 10^3 cells per well) for 24 h to allow attachment of cells to the wall of the plate. […] Next, 20 μL of 5 mg.mL^−1 MTT solution was added to each well and cultured for 4 h. The old solution was discarded, replaced with 150 μL DMSO solution per well, and shaken for 10 min. The OD value was measured under 490 nm, and the inhibition rate was calculated. The nonlinear regression fitting of the cell growth rate was carried out using SPSS 23.0 software, and the IC50 of the compound was calculated. […] A complete medium containing only cells was used as the blank control, whereas a complete medium without cells was the negative control group.
To reduce the adverse reactions caused by the fixation of drug resistance reversal agents, the concentration that reduces the proliferation rate of tumor cells by less than 10% was selected.

With `COc1cc(O)c(C(=O)/C=C/c2ccc(CN3CCC(C)CC3)cc2)cc1CN1CCCC1` [6k, (E)-1-(2-hydroxy-4-methoxy-5-(pyrrolidin-1-ylmethyl)phenyl)-3-(4-((4-methylpiperidin-1-yl)methyl)phenyl)prop-2-en-1-one], the IC50 with SiHa cells amounted to 24.83 ± 0.17 µM; in the data set on HeLa/DDP cells (setting [5]), 17.3 ± 2.07 µM; at VEGFR-2 [1], 1.67 ± 0.18 µM; with H8 cells, 30.1 ± 0.44 µM; in the data set on HUVEC cells, 20.2 ± 1.19 µM; with HeLa cells [2] (setting [6]), 15.22 ± 0.08 µM. For the same compound, the IC50 in the data set with HeLa cells [2] (setting [7]) came to 15.22 ± 0.08 µM. In addition, the “RI (resistance index)” value in the data set on HeLa/DDP cells (single agent) is 1.13.
`COc1cc(O)c(C(=O)/C=C/c2ccc(CN3CCC(C)CC3)cc2)cc1CN1CCOCC1` [6o, (E)-1-(2-hydroxy-4-methoxy-5-(morpholinomethyl)phenyl)-3-(4-((4-methylpiperidin-1-yl)methyl)phenyl)prop-2-en-1-one] had a melting point of 104.2 to 105.4 °C. Also, the IC50 in the data set with SiHa cells was determined as 63.7 ± 2.18 µM. Also, the IC50 in the data set with H8 cells stood at 80 ± 8.92 µM. In the data set on HeLa cells [2] (setting [6]), the IC50 is 65.8 ± 1.36 µM.
`O=C(/C=C/c1ccccc1)c1ccccc1` [Chalcone]: the IC50 in the data set with SiHa cells is 66.5 ± 2.88 µM; with HeLa/DDP cells (setting [5]), 91 ± 6.22 µM; at VEGFR-2 [1], > 20 µM; in the data set with H8 cells it was 77.7 ± 6.85 µM; with HUVEC cells, 77.5 ± 4.2 µM; in the data set on HeLa cells [2] (setting [6]), 74 ± 4.48 µM. In addition, the IC50 in the data set on HeLa cells [2] (setting [7]) turned out to be 74 ± 4.48 µM. Further, the “RI (resistance index)” value in the data set with HeLa/DDP cells (single agent) was determined as 1.23.
Consider `CNC(=O)c1cc(Oc2ccc(NC(=O)Nc3ccc(Cl)c(C(F)(F)F)c3)cc2)ccn1` [Sorafenib, reference compound], for which the IC50 in the data set with SiHa cells stood at 15 ± 1.2 µM; in the data set with HeLa/DDP cells (HeLa), 12.4 ± 0.54 µM; in the data set on H8 cells, 18.4 ± 1.04 µM; in the data set with HUVEC cells, 9.2 ± 1.22 µM; in the data set with HeLa cells [2] (setting [6]), 10.8 ± 0.15 µM; in the data set with HeLa cells [2] (setting [7]) it was 10.8 ± 0.15 µM. Besides, the proapoptotic rate with HeLa cells [3] is listed as 31.7%.
For the compound `CNC(=O)c1cc(Oc2ccc(C(=O)/C=C/c3cccc(Br)c3)cc2)ccn1` [compound 7], in the data set with VEGFR-2 [4], the IC50 is 0.72 µM.
Take `CNC(=O)c1cc(Oc2ccc(C(=O)/C=C/c3cc(OC)c(OC)c(OC)c3)cc2)ccn1` [compound 8]: the IC50 is 3.2 µM in the data set with VEGFR-2 [4]; 3.15 ± 0.81 µM in the data set with PC-3 cells; 3.88 ± 1.03 µM in the data set with MCF-7 cells; 0.56 ± 0.83 µM in the data set on HepG2 cells (cytotoxic effect, HepG2 cells). Also, the “cytotoxic activity relative to sorafenib” value in the data set with HepG2 cells (HepG2, MCF-7 and PC-3 cells) is 1.03–6.14 times.
For the compound `CNC(=O)c1cc(Oc2ccc(C(=O)/C=C/c3ccccc3)cc2)ccn1` [compound 9], the IC50 in the data set on VEGFR-2 [4] was 1.1 µM.

Source of the values: paper PMC10254235, “Design, Synthesis, and Anti-Cervical Cancer and Reversal of Tumor Multidrug Resistance Activity of Novel Nitrogen-Containing Heterocyclic Chalcone Derivatives” (Molecules, 2023).
